# According to patent publication US20200038355A1, “ANTIOXIDANTS FOR USE IN OPHTHALMIC SURGERY” (Case Western Reserve University, priority 2017, published 2020):
# Entries after “also recorded” stand apart in the source; their conditions may differ.
# What was measured:
# mice = assay: Mouse mock cataract surgery in vivo, immunofluorescence of EMT markers
# Procedure: Age-matched four month old mice were used in this study. Mice were anesthetized and a central corneal incision was made. The lens fiber mass was removed by hydrodissection and the remaining lens was carefully washed by HBSS to remove any lens fiber debris. Saline buffer was injected to help mice to restore their proper eye shape. Eye drops containing the antibiotic Ofloxacin were applied once immediately after surgery, and mice were sacrificed at 2, 3, 4 and 5 days after surgery. For each mouse, bilateral surgeries were performed and 25 μl of 10 mM NAC or 2 mM of GSH-EE was injected into right eye chamber immediately after surgery and continual eye drop topical application was given every 6 hr from 7 am to 11 pm. The untreated left eye served as a control. Eyes collected immediately after surgery served as time zero control. At least 6 mice were used in each group. At each time point, eyes were carefully dissected and placed in 4% paraformaldehyde for 18 hr, and then subjected to paraffin embedding and sectioning. For paraffin embedded slides, 6 μm thick sections were deparaffinized and rehydrated using standard procedure. The slides were rinsed with PBS for 10 min and antigen retrieval was carried out in 0.1M sodium citrate, pH 6.0 buffer in a microwave oven using a 4 min at power 5 plus 8 min at power 3 program. The slides were then blocked and permeabilized with 5% normal goat serum, 0.3% triton X-100 for 30 min. The primary antibody, rabbit polyclonal collagen I antibody (1:250) (Abcam, Cambridge, Mass.), rabbit polyclonal vimentin (1:500) (ThermoFisher), mouse monoclonal fibronectin antibody (1:5) (Developmental Studies Hybridoma Bank, DSHB, University of Iowa), mouse monoclonal active β-catenin (Tyr489) (1:10) (DSHB) or FITC labeled mouse monoclonal αSMA antibody (1:1000) (Sigma-Aldrich) were applied in 0.1% BSA PBS solution and incubated at 4° C. overnight in a humid chamber. After wash, the Alexa-488 or/and Alexa-594 conjugated secondary antibodies (ThermoFisher) were then applied and incubated at room temperature for one hour in a humid chamber. After wash, the slides were mounted with Prolong antifade with DAPI (ThermoFisher). For lens explant culture, the explant was briefly fixed with 10% formaldehyde for 10 min and then subjected to directly staining procedure without antigen retrieval procedure. Confocal microscope—All confocal images were collected by a Leica SP8 gSTED confocal microscope equipped with two 3 Hyd SP GaAsP detectors and the AOBS system lasers include a 405 nm, Argon (458, 476, 488, 496, 514 nm), a tunable white light (470 to 670 nm), and a 592 nm STED depletion laser. For proper comparison, each channel of fluorescence was adjusted to the highest sensitivity/intensity but without over saturation from samples with the strongest signal. […]
# [1] = tested on: mouse lens ex vivo culture; assay: Mouse whole lens ex vivo culture, lens capsule immunoblot; type: cell-based; settings: for αSMA production after BSO stimulation: ex vivo cultured mouse lens (lens capsule), 10 mM NAC or 0.5 mM GSH-EE with 500 μM BSO, 48 hr; for TGFβ2-mediated αSMA production: lens capsule from whole lens culture, 10 mM NAC or 0.5 mM GSH-EE with 1 ng/ml TGFβ2, 48 hr
# Procedure: The isolated intact lens was rinsed three times with HBSS and then cultured in 12-well-plates with serum-free Medium 199 (ThermoFisher) with 50 unit/ml penicillin streptomycin at 37° C. in 5% CO2 incubator, as described above. The lens explant was cultured following the same procedure as described by a previous report. […] et al., Exp Eye Res 71, 591-597 (2000). In brief, the mouse lens was placed in an anterior-toposterior orientation with the anterior attached to the culture dish. The lens posterior capsule was torn/cut by the tip of extra-fine forceps and then peeled towards anterior capsule and pinned on the plastic culture dish. The lens fiber mass was removed thereafter. The explant was cultured in serum-free MEM medium supplied with 50 unit/ml penicillin streptomycin at 37° C. in 5% CO2 incubator as described above. Only healthy growing explants were used for the described study and any unhealthy looking explants, such as folded explants or those with cell detachment, were discarded. Cells were placed 24 hr before the treatment and fresh medium was replaced immediately before the treatment. The indicated concentrations of BSO, DMF, NAC, GSH-EE or TGFβ2 were added to fresh medium and incubated at various time intervals as indicated. After treatment time, the cells were harvested after three washes with ice-cold PBS and subjected to immunoblot or other assays as described below. For whole lens culture, the serum-free medium with or without BSO, NAC, GSH-EE or TGFβ2 was incubated immediately after isolation for 48 hr and the whole lens or lens capsule was collected for further analysis. For lens explant culture, 48 hr after explant culture, various stimulates were used in fresh serum-free medium for an additional 48 hr, and the explant was fixed with 10% formaldehyde for 10 min before immunofluorescence stain, as described below. The cells, whole lens, lens capsule, and lens fibers were collected and lysed in lysis buffer containing 20 mM Tris pH 7.5, 1 mM EDTA, 1 mM EGTA, 150 mM NaCl, 1% Triton X-100, 2.5 mM sodium pyrophosphate, 1 mM bα-Glycerolphosphate, 1 mM Na3VO4, 1 mg/ml Leupeptin, 1 mM PMSF on ice for 10 min. The protein concentration from the supernatant was determined by protein BCA assay (ThermoFisher). The protein extract was further processed for immunoblot analysis and probed for αSMA, collagen I, vimentin, phosphorylated Smad2, phosphorylated Smad3, phosphorylated GSK-3β and (β-catenin. All data were normalized to the level of GAPDH.
smiles,measurement,setting,value
"CCOC(=O)CNC(=O)[C@H](CS)NC(=O)CC[C@H](N)C(=O)O [GSH-EE, glutathione ethyl ester]","production of EMT marker proteins (fibronectin, vimentin, collagen I, αSMA)","mice; Gclm KO mice, 2 mM GSH-EE",partially but significantly attenuate
same,αSMA production after BSO stimulation,[1],"alleviated; also recorded: partially, but significantly, block"
same,TGFβ2-mediated αSMA production,[1],significantly alleviate
same,TGFβ2-mediated αSMA production,[1]; listed as GSHEE,alleviated
"CC(=O)N[C@@H](CS)C(=O)O [NAC, N-acetyl cysteine]",nuclear colocalization (translocation) of active β-catenin,"mice; Gclc−/− (LEGSKO) mice, 72 hr after surgery, 10 mM NAC injected into eye chamber plus eye drops every 6 hours",significantly attenuated
same,fibronectin/vimentin and collagen I/αSMA expression compared to control eyes,"mice; WT and LEGSKO mice, 10 mM NAC injection immediately after surgery and continuous topical application",remarkable attenuation
same,inhibitory effect on EMT process compared with GSH-EE,mice; in vivo cataract surgery models,much higher inhibitory effect than GSH-EE
same,αSMA production after BSO stimulation,[1],alleviated; also recorded: completely abolish
same,TGFβ2-mediated αSMA production,[1],alleviated; also recorded: completely block
